Results published in ChEMBL document CHEMBL3217666, “Synthesis, thiol-mediated reactive oxygen species generation profiles and anti-proliferative activities of 2,3-epoxy-1,4-naphthoquinones” (Medchemcomm, 2012).

Key:
HEK293 [1] = experiment: Antiproliferative activity against HEK293 cells after 72 hrs by XTT assay; format: cell-based; settings: Homo sapiens, HEK293, 72 h
[2] = Antiproliferative activity against human THP1 cells after 72 hrs by XTT assay; format: functional, cell-based; settings: THP-1, 72 h
[3] = Induction of hydrogen peroxide generation at 100 uM after 30 mins by xylenol orange staining-based spectrophotometry in presence of GSH and oxygen; format: physicochemical; settings: 0.5 h
[4] = Antiproliferative activity against human glioma cells; format: functional, cell-based; settings: Glioma cell
HEK293 [5] = experiment: Selectivity index, ratio of IC50 for HEK293 cells to IC50 for human THP1 cells; format: functional

Activity [3]	Compound	IC50 (HEK293 [1])	IC50 [2]	IC50 [4]	Ratio IC50 (HEK293 [5])
5.64 µM	O=C1c2cccc(O)c2C(=O)C2OC12 (stereo not given)		11.2 µM		
1.68 µM	Nc1cccc2c1C(=O)C1OC1C2=O (stereo not given)		> 50 µM		
1.28 µM	COc1ccccc1C12OC1C(=O)c1ccccc1C2=O (stereo not given)		12.4 µM		
8.34 µM	O=C1c2ccc([N+](=O)[O-])cc2C(=O)C2OC12 (stereo not given)	55.4 µM	2.3 µM		
1.36 µM	CC(=O)c1ccc(C23OC2C(=O)c2ccccc2C3=O)cc1 (stereo not given)		> 50 µM		
1.36 µM	O=C1c2ccccc2C(=O)C2(c3ccc(F)cc3)OC12 (stereo not given)		11.7 µM		
1.46 µM	COc1cccc(C23OC2C(=O)c2ccccc2C3=O)c1 (stereo not given)		> 50 µM		

The next lines start with the compound.

Compound	Activity [3]	IC50 (HEK293 [1])	IC50 [2]	IC50 [4]	Ratio IC50 (HEK293 [5])
O=C1c2ccccc2C(=O)C2OC12 (stereo not given)	4.4 µM	18.9 µM	6.3 µM		
CCOc1cccc2c1C(=O)C1OC1C2=O (stereo not given)	1.68 µM		9.6 µM		
O=C1c2ccccc2C(=O)C2(c3ccccc3)OC12 (stereo not given)	1.44 µM		> 50 µM		
CC12OC1C(=O)c1c(O)cccc1C2=O (stereo not given)	1.6 µM		22.8 µM		
CC12OC1C(=O)c1ccccc1C2=O (stereo not given)	1.52 µM		13.6 µM	15.7 µM	
O=C1c2cccc(OCc3ccccc3)c2C(=O)C2OC12 (stereo not given)	1.6 µM		28 µM		
CC12OC1C(=O)c1c(OCc3ccccc3)cccc1C2=O (stereo not given)	1.58 µM		> 50 µM		
O=C1c2ccccc2C(=O)C2(c3cccc([N+](=O)[O-])c3)OC12 (stereo not given)	1.4 µM		> 50 µM		
O=C1c2cccc(OCc3ccc(C(F)(F)F)cc3)c2C(=O)C2OC12 (stereo not given)	1.68 µM		> 50 µM		
Cc1ccc(C23OC2C(=O)c2ccccc2C3=O)cc1 (stereo not given)	1.48 µM		20.4 µM		
COc1ccc(C23OC2C(=O)c2ccccc2C3=O)cc1 (stereo not given)	1.4 µM		11.6 µM		
COc1cccc2c1C(=O)c1c(O)c3c(c(O)c1C2=O)C[C@@](O)(C(=O)CO)C[C@@H]3O[C@H]1C[C@H](N)[C@H](O)[C@H](C)O1 [DOXORUBICIN]		0.7 µM	0.11 µM		6.4
O=C1c2cccc([N+](=O)[O-])c2C(=O)C2OC12 (stereo not given)	5.2 µM	12.4 µM	3.6 µM		
